In PubChem BioAssay (NCI):
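Cells were grown in 96-well plates and exposed to each compound for 48 hours at five concentrations; endpoints were interpolated linearly between bracketing concentrations, or set to the highest concentration if not reached. GI50 = concentration required for 50% inhibition of growth. Definition used: TGI = concentration required for complete inhibition of growth.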

Assays:
Assay in all cases: DTP human tumour cell line panel, 48 h
[1] = system: NCI-H23 lung
[2] = system: NCI-H460 lung
[3] = system: U251 CNS
[4] = system: SN12C renal
[5] = system: SF-539 CNS
[6] = system: HOP-62 NSCLC
[7] = system: CCRF-CEM leukemia
[8] = system: UO-31 renal
[9] = system: NCI-H226 lung
[10] = system: SF-295 CNS
[11] = system: OVCAR-3 ovarian
[12] = system: SK-MEL-28 melanoma
[13] = system: 786-0 renal
[14] = system: OVCAR-4 ovarian
[15] = system: OVCAR-8 ovarian
[16] = system: A549 NSCLC
[17] = system: LXFL 529 NSCLC
[18] = system: HOP-18 NSCLC
[19] = system: A498 renal
[20] = system: SK-MEL-5 melanoma
[21] = system: SNB-19 CNS
[22] = system: RPMI-8226 leukemia
[23] = system: ACHN renal
[24] = system: SF-268 CNS
[25] = system: K-562 leukemia
[26] = system: UACC-62 melanoma
[27] = system: MALME-3M melanoma
[28] = system: KM20L2 colon
[29] = system: OVCAR-5 ovarian
[30] = system: NCI-H522 lung
[31] = system: DLD-1 colon
[32] = system: LOX IMVI melanoma
[33] = system: SK-MEL-2 melanoma
[34] = system: CAKI-1 renal
[35] = system: SW-620 colon
[36] = system: SNB-78 CNS
[37] = system: HCC-2998 colon
[38] = system: IGROV1 ovarian
[39] = system: UACC-257 melanoma
[40] = system: COLO 205 colon
[41] = system: RXF 393 renal
[42] = system: HOP-92 NSCLC
[43] = system: HCT-15 colon
[44] = system: HL-60(TB) leukemia
[45] = system: DMS 273 small cell lung
[46] = system: HT29 colon
[47] = system: M14 melanoma
[48] = system: HCT-116 colon
[49] = system: SK-OV-3 ovarian
[50] = system: M19-MEL melanoma
[51] = system: EKVX NSCLC
[52] = system: KM12 colon
[53] = system: MOLT-4 leukemia
[54] = system: SNB-75 CNS
[55] = system: TK-10 renal

`NC1CCCCC1N.O=S(=O)([O-])CCCN1CCOCC1.O=S(=O)([O-])CCCN1CCOCC1.[Pt+4]` was tested, and the GI50 [1] was 18.2 µM, the TGI [1] was greater than 92.2 µM and the GI50 [2] was 3.54 µM. It also gave a TGI [2] greater than 100 µM, a GI50 [3] of 13.7 µM and a TGI [3] greater than 100 µM. It also gave a GI50 [4] of 10.7 µM, a TGI [4] greater than 100 µM and a GI50 [5] of 27.5 µM. For the same molecule, the TGI [5] was greater than 100 µM, the GI50 [6] was greater than 100 µM and the TGI [6] was greater than 100 µM. The GI50 [7] was 5.16 µM, the TGI [7] was 58.7 µM and the GI50 [8] was 19.3 µM. It also gave a TGI [8] greater than 100 µM, a GI50 [9] of 22.5 µM and a TGI [9] greater than 100 µM. For the same molecule, the GI50 [10] was 15.5 µM, the TGI [10] was greater than 100 µM and the GI50 [11] was 19.3 µM. It also gave a TGI [11] greater than 100 µM, a GI50 [12] of 5.32 µM and a TGI [12] of 48.3 µM. It also gave a GI50 [13] of 5.7 µM, a TGI [13] greater than 100 µM and a GI50 [14] greater than 29.7 µM. It also gave a TGI [14] greater than 100 µM, a GI50 [15] of 10.6 µM and a TGI [15] greater than 100 µM. The GI50 [16] was 4.72 µM, the TGI [16] was greater than 100 µM and the GI50 [17] was 27.4 µM. It also gave a TGI [17] greater than 100 µM, a GI50 [18] of 16 µM and a TGI [18] greater than 89.2 µM. The GI50 [19] was 49 µM, the TGI [19] was greater than 100 µM and the GI50 [20] was 9.83 µM. It also gave a TGI [20] of 22.2 µM, a GI50 [21] of 25.7 µM and a TGI [21] greater than 100 µM. For the same molecule, the GI50 [22] was 1.05 µM, the TGI [22] was greater than 51.4 µM and the GI50 [23] was 8.17 µM. The TGI [23] was greater than 100 µM, the GI50 [24] was 9.92 µM and the TGI [24] was greater than 100 µM. The GI50 [25] was 7.29 µM, the TGI [25] was 30.5 µM and the GI50 [26] was 11.8 µM. The TGI [26] was greater than 83.1 µM, the GI50 [27] was 5.23 µM and the TGI [27] was 22.5 µM. The GI50 [28] was 5.48 µM, the TGI [28] was greater than 100 µM and the GI50 [29] was 26 µM. For the same molecule, the TGI [29] was greater than 100 µM, the GI50 [30] was 4.64 µM and the TGI [30] was 20.6 µM. The GI50 [31] was 28.3 µM, the TGI [31] was greater than 100 µM and the GI50 [32] was 16.2 µM. For the same molecule, the TGI [32] was greater than 59.2 µM, the GI50 [33] was 13.3 µM and the TGI [33] was 44.5 µM. The GI50 [34] was 5.01 µM, the TGI [34] was greater than 85.8 µM and the GI50 [35] was 1.32 µM. It also gave a TGI [35] of 17.1 µM, a GI50 [36] greater than 100 µM and a TGI [36] greater than 100 µM. For the same molecule, the GI50 [37] was 36.3 µM, the TGI [37] was greater than 100 µM and the GI50 [38] was 18.1 µM. The TGI [38] was greater than 100 µM, the GI50 [39] was 54.6 µM and the TGI [39] was greater than 100 µM. It also gave a GI50 [40] of 10.7 µM, a TGI [40] of 42.8 µM and a GI50 [41] greater than 49.4 µM. For the same molecule, the TGI [41] was greater than 100 µM, the GI50 [42] was 32.4 µM and the TGI [42] was greater than 100 µM. For the same molecule, the GI50 [43] was 8.4 µM, the TGI [43] was greater than 56.6 µM and the GI50 [44] was 4.81 µM. It also gave a TGI [44] of 19.7 µM, a GI50 [45] of 4.87 µM and a TGI [45] greater than 100 µM. For the same molecule, the GI50 [46] was 12.8 µM, the TGI [46] was greater than 100 µM and the GI50 [47] was 14.4 µM. For the same molecule, the TGI [47] was greater than 100 µM, the GI50 [48] was 4.2 µM and the TGI [48] was greater than 100 µM. The GI50 [49] was greater than 100 µM, the TGI [49] was greater than 100 µM and the GI50 [50] was 4.52 µM. The TGI [50] was greater than 100 µM, the GI50 [51] was greater than 100 µM and the TGI [51] was greater than 100 µM. It also gave a GI50 [52] of 35.1 µM, a TGI [52] greater than 100 µM and a GI50 [53] of 2.33 µM. For the same molecule, the TGI [53] was 14.1 µM, the GI50 [54] was greater than 100 µM and the TGI [54] was greater than 100 µM. It also gave a GI50 [55] greater than 100 µM and a TGI [55] greater than 100 µM.
